How the values were obtained:
Experiment in all cases: relative viability (nuclei count vs DMSO), 5 days (fraction); higher = more cells survive
[1] = compound: CCC1=CN=CN=C1N2CCN(CC2)CC3=NC4=C(N3)C=C(C=C4)C(F)(F)F + C[C@@H](Oc1cc(-c2cnn(C3CCNCC3)c2)cnc1N)c1c(Cl)ccc(F)c1Cl [Crizotinib] (partner 1 µM)
How it was run: (§1)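 Dosing by pin tool came one day after lung cancer cell lines were seeded in 1536-well plates, using either one drug or a fixed anchor-drug dose plus five library-drug doses (not always all listed) in √10 steps. After 5 days, nuclei were counted on 4× images. Relative viability is treated-well nuclei count divided by vehicle-well nuclei count, and values are medians of duplicate plates.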

[2] = compound: CCC1=CN=CN=C1N2CCN(CC2)CC3=NC4=C(N3)C=C(C=C4)C(F)(F)F + O=C(CCCCCCC(=O)Nc1ccccc1)NO [Vorinostat] (partner 1 µM)
How it was run: as §1

[3] = compound: N=C1NC(=O)/C(=C/c2ccc(O)cc2)S1 [Mirin] + CC1(C)CCC(c2ccc(Cl)cc2)=C(CN2CCN(c3ccc(C(=O)NS(=O)(=O)c4ccc(N[C@H](CCN5CCOCC5)CSc5ccccc5)c(S(=O)(=O)C(F)(F)F)c4)cc3)CC2)C1 [Navitoclax] (partner 0.5 µM)
How it was run: as §1

[4] = compound: N=C1NC(=O)/C(=C/c2ccc(O)cc2)S1 [Mirin] + O=C(c1cc(Cc2n[nH]c(=O)c3ccccc23)ccc1F)N1CCN(C(=O)C2CC2)CC1 [Olaparib] (partner 8 µM)
How it was run: as §1

| Cell Line | relative viability ([1]; first compound 0.04 µM) | relative viability ([1]; first compound 0.1265 µM) | relative viability ([1]; first compound 0.4 µM) | relative viability ([1]; first compound 4 µM) | relative viability ([2]; first compound 0.04 µM) | relative viability ([2]; first compound 0.1265 µM) | relative viability ([2]; first compound 0.4 µM) | relative viability ([2]; first compound 1.265 µM) | relative viability ([2]; first compound 4 µM) | relative viability ([3]; first compound 0.25 µM) | relative viability ([3]; first compound 0.7906 µM) | relative viability ([3]; first compound 2.5 µM) | relative viability ([3]; first compound 7.906 µM) | relative viability ([3]; first compound 25 µM) | relative viability ([4]; first compound 0.25 µM) | relative viability ([4]; first compound 0.7906 µM) | relative viability ([4]; first compound 2.5 µM) | relative viability ([4]; first compound 7.906 µM) | relative viability ([4]; first compound 25 µM) | relative viability ([1]; first compound 1.265 µM) |
| --- | --- | --- | --- | --- | --- | --- | --- | --- | --- | --- | --- | --- | --- | --- | --- | --- | --- | --- | --- | --- |
| NCI-H727 | 0.986 | 0.863 | 0.712 | 0.919 | 1.22 | 1.08 | 1.09 | 1.03 | 1.35 | 0.518 | 0.473 | 0.393 | 0.728 | 0.454 | 0.728 | 0.6 | 0.768 | 0.602 | 0.561 | – |
| EMC-BAC-2 | 0.779 | 0.734 | 0.77 | 1.03 | – | 0.415 | 0.422 | 0.386 | 0.484 | 1.16 | 1.29 | 1.17 | 1.08 | 1.17 | 0.505 | 0.508 | 0.48 | 0.382 | 0.429 | 0.889 |
| NCI-H1355 | 1.07 | 1.01 | 1 | 1.15 | 0.643 | 0.575 | 0.584 | 0.585 | 0.644 | 1 | 0.989 | 1.07 | 0.897 | 0.979 | 0.681 | 0.747 | 0.692 | 0.755 | 0.745 | 1.14 |
| NCI-H2347 | 0.776 | 0.684 | 0.759 | 0.749 | 0.61 | 0.673 | 0.649 | 0.321 | 0.516 | 0.8 | 0.784 | 0.812 | 0.825 | 0.893 | 0.639 | 0.639 | 0.602 | 0.612 | 0.588 | 0.601 |
| NCI-H1651 | 0.889 | 0.839 | 0.845 | 0.913 | 0.615 | 0.56 | 0.542 | 0.506 | 0.584 | 1.01 | 0.97 | 1.01 | 0.826 | 0.836 | 0.182 | 0.208 | 0.182 | 0.167 | 0.199 | 0.837 |
| NCI-H1975 | 1.08 | 0.983 | 0.968 | 1.04 | 0.796 | 0.703 | 0.704 | 0.654 | 0.687 | 1.05 | 1.07 | 1.11 | 1.14 | 0.994 | 0.892 | 0.83 | 0.819 | 0.855 | 0.715 | 1.11 |
| COR-L23 | 0.58 | 0.621 | 0.66 | 0.975 | 0.464 | 0.523 | 0.404 | 0.44 | 0.462 | 1.02 | 1.06 | 1.04 | 1.07 | 0.966 | 0.395 | 0.319 | 0.313 | 0.365 | 0.319 | 0.694 |
| HCC-44 | 0.83 | 0.774 | 0.874 | 0.843 | 1.01 | 1.06 | 1.09 | 1.17 | 1.02 | 1 | 0.967 | 0.916 | 0.945 | 0.989 | 0.99 | 1.11 | 0.97 | 0.964 | 1.1 | 0.762 |

From the supplement of paper PMC10307832
